Data reported in PubChem BioAssay AID1963977 (Molecular Pharmacology Branch, DTP, NCI, 2024).
pIC50: −log10 of the molar value. Where “and” joins values, the source holds several entries; their conditions need not be identical. Equal values may be shown once.

Test system: 624824-186-R-J3-PDC multicell spheroids, viability
Assay: Anticancer human tumor 624824-186-R-J3-PDC patient-derived colon adenocarcinoma cell line growth inhibition [PI3K]
Conditions: for viability, T/C: stronger effect = lower value
Procedure, shortened: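 Stroma-containing spheroids: tumor line, pooled-donor HUVEC, hMSC. Treatments: targeted agents with PI3K inhibitors. Dosing: clinically relevant, half-log spacing, 10 microM ceiling without known Cmax. Read-out: cell viability.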

[1] = curve of first compound, second compound 0.0316 µM
[2] = curve of first compound, second compound 0.1 µM
[3] = curve of first compound, second compound 0.316 µM
[4] = curve of first compound, second compound 1 µM
[5] = curve of first compound, second compound 3.16 µM
[6] = curve of first compound, second compound 10 µM
[7] = second compound 0.0316 µM, first compound 0.0316 µM
[8] = second compound 0.0316 µM, first compound 0.1 µM
[9] = second compound 0.0316 µM, first compound 0.316 µM
[10] = second compound 0.0316 µM, first compound 1 µM
[11] = second compound 0.0316 µM, first compound 3.16 µM
[12] = second compound 0.0316 µM, first compound 10 µM
[13] = second compound 0.1 µM, first compound 0.0316 µM
[14] = second compound 0.1 µM, first compound 0.1 µM
[15] = second compound 0.1 µM, first compound 0.316 µM
[16] = second compound 0.1 µM, first compound 1 µM
[17] = second compound 0.1 µM, first compound 3.16 µM
[18] = second compound 0.1 µM, first compound 10 µM
[19] = second compound 0.316 µM, first compound 0.0316 µM
[20] = second compound 0.316 µM, first compound 0.1 µM
[21] = second compound 0.316 µM, first compound 0.316 µM
[22] = second compound 0.316 µM, first compound 1 µM
[23] = second compound 0.316 µM, first compound 3.16 µM
[24] = second compound 0.316 µM, first compound 10 µM
[25] = second compound 1 µM, first compound 0.0316 µM
[26] = second compound 1 µM, first compound 0.1 µM
[27] = second compound 1 µM, first compound 0.316 µM
[28] = second compound 1 µM, first compound 1 µM
[29] = second compound 1 µM, first compound 3.16 µM
[30] = second compound 1 µM, first compound 10 µM
[31] = second compound 3.16 µM, first compound 0.0316 µM
[32] = second compound 3.16 µM, first compound 0.1 µM
[33] = second compound 3.16 µM, first compound 0.316 µM
[34] = second compound 3.16 µM, first compound 1 µM
[35] = second compound 3.16 µM, first compound 3.16 µM
[36] = second compound 3.16 µM, first compound 10 µM
[37] = second compound 10 µM, first compound 0.0316 µM
[38] = second compound 10 µM, first compound 0.1 µM
[39] = second compound 10 µM, first compound 0.316 µM
[40] = second compound 10 µM, first compound 1 µM
[41] = second compound 10 µM, first compound 3.16 µM
[42] = second compound 10 µM, first compound 10 µM
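Also: spheroids exposed to agents for seven days before luminescence read.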
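For viability, T/C in this document: luminescent signal used as a stand-in for spheroid viability; percent viability relative to DMSO vehicle control wells taken as 100%.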

CC(C)n1nc(-c2ccc3oc(N)nc3c2)c2c(N)ncnc21
viability, T/C (compound 0.000316 µM): 103% [middle of 4 runs] | viability, T/C (compound 0.001 µM): 104% and 97.2% and 101% (2×) | viability, T/C (compound 0.00316 µM): 106% [middle of 4 runs] | viability, T/C (compound 0.01 µM): 108% [middle of 4 runs] | viability, T/C (compound 0.0316 µM): 99.4% [middle of 4 runs] | viability, T/C (compound 0.1 µM): 64.2% [middle of 4 runs] | pIC50 (curve of compound): < 7.00

Cn1nccc1Nc1nccc(-c2ccn(C(CO)c3ccc(Cl)c(F)c3)c(=O)c2)n1 (centres undefined) + CC(Nc1ncnc2nc[nH]c12)c1cc2cccc(Cl)c2c(=O)n1-c1ccccc1
pIC50 [1]: < 5.00 | pIC50 [2]: < 5.00 | pIC50 [3]: < 5.00 | pIC50 [4]: 5.03 | pIC50 [5]: 5.55 | pIC50 [6]: 6.20 | viability, T/C [7]: 103% | viability, T/C [8]: 93.9% | viability, T/C [9]: 95.1% | viability, T/C [10]: 76.9% | viability, T/C [11]: 61.2% | viability, T/C [12]: 57.4% | viability, T/C [13]: 103% | viability, T/C [14]: 85.4% | viability, T/C [15]: 94.5% | viability, T/C [16]: 74% | viability, T/C [17]: 61.2% | viability, T/C [18]: 57.3% | viability, T/C [19]: 89.7% | viability, T/C [20]: 88% | viability, T/C [21]: 87% | viability, T/C [22]: 72.7% | viability, T/C [23]: 62.6% | viability, T/C [24]: 51.8% | viability, T/C [25]: 98.5% | viability, T/C [26]: 88.2% | viability, T/C [27]: 91.2% | viability, T/C [28]: 77.7% | viability, T/C [29]: 61.8% | viability, T/C [30]: 49.4% | viability, T/C [31]: 103% | viability, T/C [32]: 88.1% | viability, T/C [33]: 74.8% | viability, T/C [34]: 63% | viability, T/C [35]: 47.4% | viability, T/C [36]: 38.5% | viability, T/C [37]: 89.6% | viability, T/C [38]: 81.7% | viability, T/C [39]: 59.4% | viability, T/C [40]: 43.5% | viability, T/C [41]: 35.5% | viability, T/C [42]: 30.2%

CC(Nc1ncnc2nc[nH]c12)c1cc2cccc(Cl)c2c(=O)n1-c1ccccc1 (centres undefined)
viability, T/C (compound 0.0316 µM): 103% [middle of 8 runs] | viability, T/C (compound 0.316 µM): 106% [middle of 8 runs] | viability, T/C (compound 1 µM): 108% [middle of 8 runs] | viability, T/C (compound 3.16 µM): 106% [middle of 8 runs] | viability, T/C (compound 10 µM): 94.7% [middle of 8 runs] | pIC50 (compound alone, run of 04/25/2023): < 5.00

CC1(C)CCC(Nc2ncc(C(F)(F)F)c(-c3c[nH]c4c(P(C)(C)=O)c(C#N)ccc34)n2)CN1 (centres undefined) + Cc1nc(NC(=O)N2CCCC2C(N)=O)sc1-c1ccnc(C(C)(C)C(F)(F)F)c1
pIC50 [1]: 5.25 | pIC50 [2]: 5.27 | pIC50 [3]: 5.29 | pIC50 [4]: 5.34 | pIC50 [5]: 5.74 | pIC50 [6]: > 7.50 | viability, T/C [7]: 113% | viability, T/C [8]: 92% | viability, T/C [9]: 106% | viability, T/C [10]: 101% | viability, T/C [11]: 95% | viability, T/C [12]: 4.64% | viability, T/C [13]: 107% | viability, T/C [14]: 89.9% | viability, T/C [15]: 110% | viability, T/C [16]: 102% | viability, T/C [17]: 90.3% | viability, T/C [18]: 4.24% | viability, T/C [19]: 97.5% | viability, T/C [20]: 103% | viability, T/C [21]: 88% | viability, T/C [22]: 92.2% | viability, T/C [23]: 84.5% | viability, T/C [24]: 4.3% | viability, T/C [25]: 76.1% | viability, T/C [26]: 75.9% | viability, T/C [27]: 79.3% | viability, T/C [28]: 79.4% | viability, T/C [29]: 72.3% | viability, T/C [30]: 3.52% | viability, T/C [31]: 59.1% | viability, T/C [32]: 54.3% | viability, T/C [33]: 53.7% | viability, T/C [34]: 55.3% | viability, T/C [35]: 45.6% | viability, T/C [36]: 2.38% | viability, T/C [37]: 35.5% | viability, T/C [38]: 34.1% | viability, T/C [39]: 36.2% | viability, T/C [40]: 34% | viability, T/C [41]: 39% | viability, T/C [42]: 1.61%

CC(C)NCC(C(=O)N1CCN(c2ncnc3c2C(C)CC3O)CC1)c1ccc(Cl)cc1 (centres undefined) + CC(Nc1ncnc2nc[nH]c12)c1cc2cccc(Cl)c2c(=O)n1-c1ccccc1
pIC50 [1]: < 5.00 | pIC50 [2]: < 5.00 | pIC50 [3]: < 5.00 | pIC50 [4]: < 5.00 | pIC50 [5]: 5.19 | pIC50 [6]: 5.09 | viability, T/C [7]: 124% | viability, T/C [8]: 99% | viability, T/C [9]: 94.2% | viability, T/C [10]: 80.5% | viability, T/C [11]: 72.5% | viability, T/C [12]: 52.4% | viability, T/C [13]: 108% | viability, T/C [14]: 89.1% | viability, T/C [15]: 95.5% | viability, T/C [16]: 81.2% | viability, T/C [17]: 59.9% | viability, T/C [18]: 56.2% | viability, T/C [19]: 103% | viability, T/C [20]: 103% | viability, T/C [21]: 106% | viability, T/C [22]: 79.2% | viability, T/C [23]: 59.8% | viability, T/C [24]: 54.2% | viability, T/C [25]: 104% | viability, T/C [26]: 110% | viability, T/C [27]: 115% | viability, T/C [28]: 74.7% | viability, T/C [29]: 62.8% | viability, T/C [30]: 45.8% | viability, T/C [31]: 93% | viability, T/C [32]: 89.7% | viability, T/C [33]: 89.5% | viability, T/C [34]: 71.6% | viability, T/C [35]: 57.4% | viability, T/C [36]: 45.7% | viability, T/C [37]: 98.2% | viability, T/C [38]: 89.5% | viability, T/C [39]: 80% | viability, T/C [40]: 72% | viability, T/C [41]: 56% | viability, T/C [42]: 48.7%
